Test results taken from patent US20260055108A1, “TRIAZINE COMPOUNDS AND USES THEREOF” (HUTCHMED LIMITED, priority 2022, published 2026).
Like-named read-outs stand apart in the source and are kept apart here.

Experiments:
[1] = target: Recombinant human Menin protein (2-610) / MLL polypeptide binding (Homo sapiens (Human), UniProt O00255); assay: Menin and MLL protein binding at a molecular level (fluorescence polarization method); conditions: inhibition of Menin / MLL polypeptide binding
Procedure, shortened: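 Binding of recombinant human Menin (2-610) to 6-FAM-labelled MLL peptide measured by fluorescence polarization (ex 480/em 535 nm) in Tris/NaCl/TCEP buffer, pH 7.5, 2% DMSO. Compound preincubated with Menin 30 min at room temperature, then peptide added for 30 min in the dark. Tested at 1.000 down to 0.0005 μM final.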

[2] = tested on: MV-4-11 cells (human acute myelogenous leukemia cell line carrying MLL-AF4 mutation); assay: Cell proliferation assay, MV-4-11 (CellTiter-Glo); format: cell-based; conditions: Homo sapiens, MV4-11, 72 h
Procedure, shortened: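 MV-4-11 cells (3000/well, IMDM with 10% HIFBS and 50 μM β-mercaptoethanol) exposed to compound at 1.100–0.001 μM final, 0.1% DMSO, for 3 days at 37°C. Viability read by CellTiter-Glo luminescence on day 0 and day 3, normalised to day-0 and untreated wells.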

[3] = MV-4-11 cells, 3 days treatment, CellTiter-Glo, read-out: GI50

Sequence of Recombinant human Menin protein (2-610) / MLL polypeptide binding (O00255 2-610): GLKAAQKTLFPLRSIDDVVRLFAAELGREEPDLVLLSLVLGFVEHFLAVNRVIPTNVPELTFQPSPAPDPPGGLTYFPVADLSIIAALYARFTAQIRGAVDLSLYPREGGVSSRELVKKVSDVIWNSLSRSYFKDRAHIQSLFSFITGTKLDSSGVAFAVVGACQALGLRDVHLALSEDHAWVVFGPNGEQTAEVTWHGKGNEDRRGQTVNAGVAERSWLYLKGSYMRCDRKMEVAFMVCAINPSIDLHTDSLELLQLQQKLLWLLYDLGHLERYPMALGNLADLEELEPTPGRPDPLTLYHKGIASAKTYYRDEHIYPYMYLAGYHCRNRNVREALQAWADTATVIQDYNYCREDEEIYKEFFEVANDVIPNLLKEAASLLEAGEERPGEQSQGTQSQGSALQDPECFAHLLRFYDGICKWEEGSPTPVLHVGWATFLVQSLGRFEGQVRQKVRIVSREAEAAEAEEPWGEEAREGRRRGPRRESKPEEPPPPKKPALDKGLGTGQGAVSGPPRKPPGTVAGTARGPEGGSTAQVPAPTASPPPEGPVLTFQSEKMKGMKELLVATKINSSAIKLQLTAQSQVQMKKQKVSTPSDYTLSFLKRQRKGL

IC50 [1]	GI50 [2, 3]	Structure (SMILES)	GI50 [2]
0.0145 µM	0.02 µM	CCN(C(=O)c1cc(F)ccc1Oc1nncnc1N1CC2(CCN(CC3CCN(C(=O)CC#N)CC3)CC2)C1)C(C)C [Compound 13]	–
0.004 µM	0.002 µM	C=CC(=O)Nc1cccc(N2CCC(CN3CCC4(CC3)CN(c3ncnnc3Oc3ccc(F)cc3C(=O)N(CC)C(C)C)C4)CC2)c1 [Compound 183]	–
0.0085 µM	0.016 µM	CCN(C(=O)c1cc(F)ccc1Oc1nncnc1N1CC2(CCN(Cc3ccc4oc(C#N)cc4c3)CC2)C1)C(C)C [Compound 69]	–
0.0413 µM	0.056 µM	CCN(C(=O)c1cc(F)ccc1Oc1nncnc1N1CC2(CCN(C(C)C3CCN(c4cc(OC)c(OC)nn4)CC3)CC2)C1)C(C)C (stereo not shown) [Compound 171, 2-((5-(7-(1-(1-(5,6-dimethoxypyridazin-3-yl)piperidin-4-yl)ethyl)-2,7-diazaspiro[3.5]nonan-2-yl)-1,2,4-triazin-6-yl)oxy)-N-ethyl-5-fluoro-N-isopropylbenzamide]	–
0.0187 µM	0.022 µM	Cc1nc(-c2cc(F)ccc2Oc2nncnc2N2CC3(CCN(Cc4ccc5c(cc(C#N)n5CCO)c4C)CC3)C2)n(C(C)C)n1 [Compound 161]	–
0.0415 µM	0.066 µM	CCN(C(=O)c1cc(F)ccc1Oc1nncnc1N1CC2(CCN(CC3CCN(c4ccncc4C(N)=O)CC3)CC2)C1)C(C)C [Compound 150, 4-(4-((2-(6-(2-(ethyl(isopropyl)carbamoyl)-4-fluorophenoxy)-1,2,4-triazin-5-yl)-2,7-diazaspiro[3.5]nonan-7-yl)methyl)piperidin-1-yl)nicotinamide]	–
0.0006 µM	0.002 µM	CCN(C(=O)c1cc(F)ccc1Oc1nncnc1N1CC2(CCN(CC3CCN(c4cc(OC)c(OC)nn4)CC3)C2)C1)C(C)C [Compound 93]	–
0.0137 µM	0.023 µM	CCN(C(=O)c1cc(F)ccc1Oc1nncnc1N1CC2(CCN(CC3CCN(C(=O)Nc4ccccn4)CC3)CC2)C1)C(C)C [Compound 37]	–
0.163 µM	0.231 µM	CCN(C(=O)c1cc(F)ccc1Oc1nncnc1N1CC2(CCN(CC3CCN(C(=O)N(C)c4ccccn4)CC3)CC2)C1)C(C)C [Compound 25]	–
> 0.2 µM	0.585 µM	CCN(C(=O)c1cc(F)ccc1Oc1nncnc1N1CC2(CCN(CC3CCC(O)(c4ccccn4)CC3)CC2)C1)C(C)C (stereo not shown) [Compound 125]	–
0.0316 µM	0.037 µM	CCN(C(=O)c1cc(F)ccc1Oc1nncnc1N1CC2(CCN(CC3(N(C)CCOC)CC3)CC2)C1)C(C)C [Compound 140]	–
0.0738 µM	0.06 µM	C[C@H]1COCCN1C(=O)c1cc(F)ccc1Oc1nncnc1N1CC2(CCN(CC3CCN(c4ccccn4)CC3)CC2)C1 [Compound 77]	–
0.155 µM	0.284 µM	O=C(NC1CC1)N1CCC(CN2CCC3(CC2)CN(c2ncnnc2Oc2ccc(F)cc2)C3)CC1 [Compound 31]	–
> 1 µM	1.28 µM	CCN(C(=O)c1cc(F)ccc1Oc1nncnc1N1CC2(CCN(Cc3ccc4nc(C)ncc4c3)CC2)C1)C(C)C [Compound 71]	–
0.0007 µM	0.003 µM	CCN(C(=O)c1cc(F)ccc1Oc1nncnc1N1CC2(CCN(CC3CCN(c4cc(OC)c(OC)cn4)CC3)CC2)C1)C(C)C [Compound 110]	–
0.324 µM	0.193 µM	CCN(C(=O)c1cc(F)ccc1Oc1nncnc1N1CC2(CCN(Cc3ccc4[nH]ccc4c3)CC2)C1)C(C)C [Compound 62]	–
0.0052 µM	0.018 µM	CCN(C(=O)c1cc(F)ccc1Oc1nncnc1N1CC(C2(N(C)Cc3ccc4c(cc(C#N)n4CCO)c3C)CC2)C1)C(C)C [Compound 153]	–

IC50 [1]	GI50 [2, 3]	Structure (SMILES)	GI50 [2]
0.0027 µM	0.009 µM	CCN(C(=O)c1cc(F)ccc1Oc1nncnc1N1CC2(CCN(Cc3ccc4c(cc(C#N)n4C4COC4)c3C)CC2)C1)C(C)C [Compound 130]	–
0.0555 µM	0.022 µM	CCN(C(=O)c1cc(F)ccc1Oc1nncnc1N1CC2(CCN(CC3CCC(c4ccccn4)CC3)CC2)C1)C(C)C (stereo not shown) [Compound 135, N-ethyl-5-fluoro-N-isopropyl-2-((5-(7-((4-(pyridin-2-yl)cyclohexyl)methyl)-2,7-diazaspiro[3.5]nonan-2-yl)-1,2,4-triazin-6-yl)oxy)benzamide]	–
0.0295 µM	0.027 µM	CCN(C(=O)c1cc(F)ccc1Oc1nncnc1N1CC2(CCN(CC3CCN(C(=O)c4ccccc4F)CC3)CC2)C1)C(C)C [Compound 14]	–
0.0894 µM	0.11 µM	CCN(C(=O)c1cc(F)ccc1Oc1nncnc1N1CC2(CCN(Cc3ccc(NCC#N)cc3C)CC2)C1)C(C)C [Compound 61]	–
0.955 µM	0.883 µM	CCN(C(=O)c1cc(F)ccc1Oc1nncnc1N1CC2(CCN(Cc3ccc4oc(C(=O)NC)c(C)c4c3)CC2)C1)C(C)C [Compound 75]	–
0.0149 µM	0.018 µM	CCN(C(=O)c1cc(F)ccc1Oc1nncnc1N1CC2(CCN(CC3CCN(c4ccnnc4)CC3)CC2)C1)C(C)C [Compound 167]	–
0.0502 µM	0.08 µM	CCN(C(=O)c1cc(F)ccc1Oc1nncnc1N1CC2(CCN(CC3CCN(C(=O)CNC4CC4)CC3)CC2)C1)C(C)C [Compound 7]	–
0.0051 µM	0.02 µM	CCN(C(=O)c1cc(F)ccc1Oc1nncnc1N1CC2(CCN(CC3CCN(C(=O)C4(O)CC4)CC3)CC2)C1)C(C)C [Compound 11]	–
> 1 µM	0.986 µM	CCN(C(=O)c1cc(F)ccc1Oc1nncnc1N1CC(C2(N(C)Cc3cc(C#N)n(C)n3)CC2)C1)C(C)C [Compound 146, 2-((5-(3-(1-(((5-cyano-1-methyl-1H-pyrazol-3-yl)methyl)(methyl)amino)cyclopropyl)azetidin-1-yl)-1,2,4-triazin-6-yl)oxy)-N-ethyl-5-fluoro-N-isopropylbenzamide]	–
0.0015 µM	0.003 µM	CCN(C(=O)c1cc(F)ccc1Oc1nncnc1N1CC2(CCN(CC3CCN(c4cccc(C(C)(C)O)n4)CC3)CC2)C1)C(C)C [Compound 121]	–
0.0026 µM	0.007 µM	CCN(C(=O)c1cc(F)ccc1Oc1nncnc1N1CC2(CCN(CC3CCN(c4cccnn4)CC3)CC2)C1)C(C)C [Compound 166]	–
0.0487 µM	0.05 µM	CCN(C(=O)c1cc(F)ccc1Oc1nncnc1N1CC2(CCN(Cc3ccc(NC(=O)CC#N)cc3C)CC2)C1)C(C)C [Compound 17]	–
0.0021 µM	0.002 µM	CCN(C(=O)c1cc(F)ccc1Oc1nncnc1N1CC2(CCN(CC3CCN(c4cc(OC)c(OC)nn4)CC3)CC2)C1)C(C)C [Compound 90]	–
> 1 µM	> 3.3 µM	CCN(C(=O)c1cc(F)ccc1Oc1nncnc1N1CC(C2(N(C)Cc3cc(C(N)=O)n(C)n3)CC2)C1)C(C)C [Compound 145, 3-(((1-(1-(6-(2-(ethyl(isopropyl)carbamoyl)-4-fluorophenoxy)-1,2,4-triazin-5-yl)azetidin-3-yl)cyclopropyl)(methyl)amino)methyl)-1-methyl-1H-pyrazole-5-carboxamide]	–
0.0008 µM	0.002 µM	CCN(C(=O)c1cc(F)ccc1Oc1nncnc1N1CC2(CCN(Cc3ccc4c(cc(C#N)n4CCO)c3C)CC2)C1)C(C)C [Compound 154]	–
0.0023 µM	0.003 µM	CCN(C(=O)c1cc(F)ccc1Oc1nncnc1N1CC2(CCN(CC3CCN(c4cccc(C(N)=O)n4)CC3)CC2)C1)C(C)C [Compound 119]	–
0.133 µM	0.039 µM	CCN(C(=O)c1cc(F)ccc1Oc1nncnc1N1CC2(CCN(CC3CC=C(c4ccccn4)CC3)CC2)C1)C(C)C (stereo not shown) [Compound 123]	–

Structure (SMILES)	IC50 [1]	GI50 [2, 3]	GI50 [2]
COc1cc(N2CCC(CN3CCC4(CC3)CN(c3ncnnc3Oc3ccc(F)cc3C(=O)NC(C)C)C4)CC2)nnc1OC [Compound 177, 2-((5-(7-((1-(5,6-dimethoxypyridazin-3-yl)piperidin-4-yl)methyl)-2,7-diazaspiro[3.5]nonan-2-yl)-1,2,4-triazin-6-yl)oxy)-5-fluoro-N-isopropylbenzamide]	0.0473 µM	–	0.092 µM
